Data published in patent US20240139167A1, “LYSOSOME-ASSOCIATED MEMBRANE PROTEIN TARGETING COMPOUNDS AND USES THEREOF” (HADASIT MEDICAL RESEARCH SERVICES AND DEVELOPMENT LTD., priority 2021, published 2024).

Columns and labels:
Gbe^ys/ys mice = experiment: Histological PG (PAS after diastase) and biochemical glycogen determination in tissues; format: in vivo
Description: FIGS. 2A-2C include images and graphs of histopathological effects of Compound 1 and its pharmacokinetics: right panel present images of indicated tissues of sacrificed mice and stained for PG (arrows) with PAS following treatment with diastase; left panel, presents bar graphs quantifying PAS staining, based on analysis of 4 sections from each tissue in n=2 wild type, n=7 Gbe^ys/ys vehicle-treated, and n=9 Compound 1-treated mice (2A); bar graph quantifying total glycogen in the respective tissues (2B); graph of Compound 1pharmacokinetics (2C); 9 months old Gbe^ys/ys mice were SC-injected with 150 μL of Compound 1 at 250 mg/kg. Mice were sacrificed 30-, 60-, 90-, and 210-min post injection and the indicated tissues were removed, as well as 200 μL of serum drawn. […] Shown are means and SEM of results obtained from n=3 mice at each time point.
Brain, heart, muscle, nerve fascicles (peripheral nerves), and liver tissues from wt and Compound 1 and vehicle treated Gbe^ys/ys animals were separated to characterize the histopathological effects of Compound 1. Tissues were extracted, fixed, embedded in paraffin, and sectioned. After deparaffinization, sections were treated for 5 min with 0.5% diastase to digest non-polyglucosan glycogen, leaving behind polyglucosan. Sections were then washed, stained for polyglucosan with PAS and counterstained with hematoxylin, and analyzed by light microscopy, all as previously described. […] Following digestion, total glycogen was determined based on the glucose content using the Sigma GAGO20 kit.
This information is important for determining whether the expected mode of action of Compound 1 discovered ex vivo -reduction of polyglucosan levels in fibroblasts — also takes place in vivo and if so in which tissues. […] Following diastase treatment to digest non-polyglucosan glycogen, leaving behind polyglucosan, sections were stained for polyglucosan with periodic acid-Schiff s (PAS) reagent, counterstained with hematoxylin and analyzed by light microscopy.

[1] = Irwin test (abnormal spontaneous behavior); format: in vivo, mice; set-up: Wounds / Transfer behavior / Tremor / Gait / Tail elevation / Touch escape / Trunk curl / Righting reflex / Salivation / Extension reflex: scale not given here
Description: The inventors have tested Compound 1 (FIG. 1A) for its capacity to correct the deficient motor phenotypes and short lifespan in the APBD mouse model Gbe^ys/ys. Compound 1 is one of 19 PG reducing HTS hits previously discovered by the inventors. It was selected by in silico ADMET (Absorption, Distribution, Metabolism, Excretion, and Toxicity) tests run on these hits to predict which of them should be safe and pharmacokinetically and pharmacodynamically preferred and is therefore worth further pursuit (FIG. 8, compound “A”). […] Following 1 h and 24 h treatments, mice were also examined for abnormal spontaneous behavior, such as immobility, excessive running, stereotyped movements, and abnormal posture (Irwin tests).

[2] = PAS after diastase, sacrifice at 9.5 months

COCCN(Cc1sccc1C)C(=O)c1cc(C)nc(O)c1 [Compound 1]
muscle polyglucosans (Gbe^ys/ys mice; [2]): no apparent effect
polyglucosan levels in brain, liver, heart, and peripheral nerve (Gbe^ys/ys mice; [2]): significant reduction in polyglucosan levels
total glycogen levels, determined biochemically (Gbe^ys/ys mice; same tissues): correspondingly affected
Appearance of fur ([1]; 50 mg/kg, 1 h): 2
Body position ([1]; 50 mg/kg, 1 h): 3.5
Coat color ([1]; 50 mg/kg, 1 h): Black
Extension reflex ([1]; 50 mg/kg, 1 h): 2
Gait ([1]; 50 mg/kg, 1 h): 0
Patches of missing fur on body ([1]; 50 mg/kg, 1 h): 0
Patches of missing fur on face ([1]; 50 mg/kg, 1 h): 0
Pelvic elevation ([1]; 50 mg/kg, 1 h): 2
Piloerection ([1]; 50 mg/kg, 1 h): 0
Positional passivity ([1]; 50 mg/kg, 1 h): 0
Presence of whiskers ([1]; 50 mg/kg, 1 h): 3
Righting reflex ([1]; 50 mg/kg, 1 h): 0
Salivation ([1]; 50 mg/kg, 1 h): 0
Tail elevation ([1]; 50 mg/kg, 1 h): 1
Touch escape ([1]; 50 mg/kg, 1 h): 2
Transfer behavior ([1]; 50 mg/kg, 1 h): 5
Tremor ([1]; 50 mg/kg, 1 h): 0
Trunk curl ([1]; 50 mg/kg, 1 h): 0
Wounds ([1]; 50 mg/kg, 1 h): 0
Appearance of fur ([1]; 50 mg/kg, 24 h): 2
Body position ([1]; 50 mg/kg, 24 h): 3.5
Coat color ([1]; 50 mg/kg, 24 h): Black
Extension reflex ([1]; 50 mg/kg, 24 h): 2
Gait ([1]; 50 mg/kg, 24 h): 0
Patches of missing fur on body ([1]; 50 mg/kg, 24 h): 0
Patches of missing fur on face ([1]; 50 mg/kg, 24 h): 0
Pelvic elevation ([1]; 50 mg/kg, 24 h): 2
Piloerection ([1]; 50 mg/kg, 24 h): 0
Positional passivity ([1]; 50 mg/kg, 24 h): 0
Presence of whiskers ([1]; 50 mg/kg, 24 h): 3
Righting reflex ([1]; 50 mg/kg, 24 h): 0
Salivation ([1]; 50 mg/kg, 24 h): 0
Tail elevation ([1]; 50 mg/kg, 24 h): 1
Touch escape ([1]; 50 mg/kg, 24 h): 2
Transfer behavior ([1]; 50 mg/kg, 24 h): 5
Tremor ([1]; 50 mg/kg, 24 h): 0
Trunk curl ([1]; 50 mg/kg, 24 h): 0
Wounds ([1]; 50 mg/kg, 24 h): 0
Appearance of fur ([1]; 250 mg/kg, 1 h): 2
Body position ([1]; 250 mg/kg, 1 h): 3
Coat color ([1]; 250 mg/kg, 1 h): Black
Extension reflex ([1]; 250 mg/kg, 1 h): 2
Gait ([1]; 250 mg/kg, 1 h): 0
Patches of missing fur on body ([1]; 250 mg/kg, 1 h): 0
Patches of missing fur on face ([1]; 250 mg/kg, 1 h): 0
Pelvic elevation ([1]; 250 mg/kg, 1 h): 2
Piloerection ([1]; 250 mg/kg, 1 h): 0
Positional passivity ([1]; 250 mg/kg, 1 h): 0
Presence of whiskers ([1]; 250 mg/kg, 1 h): 3
Righting reflex ([1]; 250 mg/kg, 1 h): 0
Salivation ([1]; 250 mg/kg, 1 h): 0
Tail elevation ([1]; 250 mg/kg, 1 h): 1
Touch escape ([1]; 250 mg/kg, 1 h): 2
Transfer behavior ([1]; 250 mg/kg, 1 h): 5
Tremor ([1]; 250 mg/kg, 1 h): 0
Trunk curl ([1]; 250 mg/kg, 1 h): 0
Wounds ([1]; 250 mg/kg, 1 h): 0
Appearance of fur ([1]; 250 mg/kg, 24 h): 2
Body position ([1]; 250 mg/kg, 24 h): 3
Coat color ([1]; 250 mg/kg, 24 h): Black
Extension reflex ([1]; 250 mg/kg, 24 h): 2
Gait ([1]; 250 mg/kg, 24 h): 0
Patches of missing fur on body ([1]; 250 mg/kg, 24 h): 0
Patches of missing fur on face ([1]; 250 mg/kg, 24 h): 0
Pelvic elevation ([1]; 250 mg/kg, 24 h): 2
Piloerection ([1]; 250 mg/kg, 24 h): 0
Positional passivity ([1]; 250 mg/kg, 24 h): 0
Presence of whiskers ([1]; 250 mg/kg, 24 h): 3
Righting reflex ([1]; 250 mg/kg, 24 h): 0
Salivation ([1]; 250 mg/kg, 24 h): 0
Tail elevation ([1]; 250 mg/kg, 24 h): 1
Touch escape ([1]; 250 mg/kg, 24 h): 2
Transfer behavior ([1]; 250 mg/kg, 24 h): 5
Tremor ([1]; 250 mg/kg, 24 h): 0
Trunk curl ([1]; 250 mg/kg, 24 h): 0
Wounds ([1]; 250 mg/kg, 24 h): 0
adverse effect in Irwin tests ([1]; 1 h and 24 h treatments): did not cause any adverse effect
